Assay results taken from ChEMBL document CHEMBL1201862, “PubChem BioAssay data set” (2004).
Activity calls are given as the source filed them.

Key:
[1] = target: T1, Rac GTPase-activating protein 1 (Homo sapiens, UniProt Q9H0H5); assay: blockers of MgcRacGAP-driven Rac1 GTP hydrolysis – biochemical, ADP Hunter fluorescence, primary and confirmatory, confirmation (AID 624330); type: functional
T1 sequence (Q9H0H5 whole entry): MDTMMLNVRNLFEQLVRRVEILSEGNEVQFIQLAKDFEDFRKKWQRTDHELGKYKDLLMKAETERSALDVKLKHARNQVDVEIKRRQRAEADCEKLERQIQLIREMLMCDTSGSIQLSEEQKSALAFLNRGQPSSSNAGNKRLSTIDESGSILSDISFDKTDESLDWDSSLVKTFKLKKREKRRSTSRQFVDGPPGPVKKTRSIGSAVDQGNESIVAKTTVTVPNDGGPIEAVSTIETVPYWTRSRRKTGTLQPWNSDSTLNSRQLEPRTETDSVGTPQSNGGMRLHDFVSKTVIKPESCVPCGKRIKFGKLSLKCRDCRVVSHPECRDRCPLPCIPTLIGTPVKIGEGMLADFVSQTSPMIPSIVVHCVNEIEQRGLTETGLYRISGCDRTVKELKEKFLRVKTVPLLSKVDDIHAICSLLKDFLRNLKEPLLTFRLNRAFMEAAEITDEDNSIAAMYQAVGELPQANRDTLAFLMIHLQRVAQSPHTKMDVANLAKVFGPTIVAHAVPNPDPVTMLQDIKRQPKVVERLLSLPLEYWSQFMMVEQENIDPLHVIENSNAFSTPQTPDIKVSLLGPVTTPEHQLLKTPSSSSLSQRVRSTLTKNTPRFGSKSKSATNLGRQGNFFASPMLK

[2] = target: Heat shock protein HSP 90-alpha (Homo sapiens, UniProt P07900); type: functional, organism-based
[3] = target: T2, Corticotropin-releasing factor receptor 2/Corticotropin-releasing factor-binding protein (Homo sapiens, UniProt P24387+Q13324); assay: activators of CRF receptor 2 with binding protein – uHTS hits, confirmation (AID 602473); type: functional; conditions: read-out: EC50_Mean
T2 sequence (Q13324 whole entry): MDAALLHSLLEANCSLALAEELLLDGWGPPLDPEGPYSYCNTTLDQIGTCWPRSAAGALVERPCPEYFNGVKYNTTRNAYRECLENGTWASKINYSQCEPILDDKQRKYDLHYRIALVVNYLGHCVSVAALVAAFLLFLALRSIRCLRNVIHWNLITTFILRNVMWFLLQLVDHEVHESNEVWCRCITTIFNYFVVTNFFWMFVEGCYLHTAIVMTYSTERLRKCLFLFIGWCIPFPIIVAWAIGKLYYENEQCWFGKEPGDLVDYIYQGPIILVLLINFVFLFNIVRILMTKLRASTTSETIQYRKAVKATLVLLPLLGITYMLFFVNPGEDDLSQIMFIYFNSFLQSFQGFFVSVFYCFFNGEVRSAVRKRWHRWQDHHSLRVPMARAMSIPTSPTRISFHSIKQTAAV
T2 sequence (P24387 whole entry): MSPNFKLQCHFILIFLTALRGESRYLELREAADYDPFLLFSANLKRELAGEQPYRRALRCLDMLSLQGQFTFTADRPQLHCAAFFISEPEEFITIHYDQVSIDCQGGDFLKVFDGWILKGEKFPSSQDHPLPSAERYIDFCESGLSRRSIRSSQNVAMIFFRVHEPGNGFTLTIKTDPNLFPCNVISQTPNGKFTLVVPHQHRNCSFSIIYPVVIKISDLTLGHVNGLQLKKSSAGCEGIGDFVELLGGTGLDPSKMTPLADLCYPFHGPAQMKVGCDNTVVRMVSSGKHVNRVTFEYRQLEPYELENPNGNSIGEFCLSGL

[4] = luciferase reporter signal suppression in cells – H4 neuroglioma cells, luminescence, dose response (AID 1990); type: functional, cell-based
[5] = target: T3, RNA-binding protein pos-1 (Caenorhabditis elegans, UniProt G5EF15); assay: disruptors of C. elegans POS-1 RNA interaction – biochemical, fluorescence polarization, dose response (AID 1964);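 also: purified POS-1 fused to maltose binding protein made in E. coli; potency of compounds blocking POS-1 binding to fluorescent RNA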
T3 sequence (G5EF15 whole entry): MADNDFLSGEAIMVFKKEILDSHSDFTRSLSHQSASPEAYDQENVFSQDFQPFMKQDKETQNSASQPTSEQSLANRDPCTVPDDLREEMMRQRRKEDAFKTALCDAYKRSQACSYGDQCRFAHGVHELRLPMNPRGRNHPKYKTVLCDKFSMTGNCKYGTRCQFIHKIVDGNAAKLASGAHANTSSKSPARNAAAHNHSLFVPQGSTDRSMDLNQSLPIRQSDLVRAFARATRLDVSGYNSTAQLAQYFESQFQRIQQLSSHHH

[6] = Luminescence Cell-Based Dose Response HTS to Identify Inhibitors of 5'UTR Stem-Loop Driven Prion Protein mRNA Translation in H4 Neuroglioblastoma Cells. [Related pubchem assays: 1827 (Project Summary), 1813 (Primary HTS)]; type: functional
[7] = target: T4, Zinc finger protein mex-5 (Caenorhabditis elegans, UniProt Q9XUB2); assay: potency of MEX-5 RNA-binding blockers – biochemical, C. elegans, fluorescence polarization, dose response (AID 1960)
T4 sequence (Q9XUB2 whole entry): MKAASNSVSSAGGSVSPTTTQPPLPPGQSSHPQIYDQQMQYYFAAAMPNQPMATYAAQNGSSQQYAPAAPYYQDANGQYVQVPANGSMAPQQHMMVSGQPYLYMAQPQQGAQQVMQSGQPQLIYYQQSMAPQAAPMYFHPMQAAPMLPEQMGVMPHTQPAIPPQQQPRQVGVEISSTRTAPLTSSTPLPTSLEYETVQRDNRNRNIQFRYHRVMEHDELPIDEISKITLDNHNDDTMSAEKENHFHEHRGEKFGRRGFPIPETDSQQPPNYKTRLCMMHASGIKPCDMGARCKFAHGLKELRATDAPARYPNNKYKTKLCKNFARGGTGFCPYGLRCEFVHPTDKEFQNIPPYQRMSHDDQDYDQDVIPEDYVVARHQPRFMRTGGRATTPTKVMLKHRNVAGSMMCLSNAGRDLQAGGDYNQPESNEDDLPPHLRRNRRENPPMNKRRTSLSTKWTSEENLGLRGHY

[8] = alpha-synuclein stem-loop luciferase translation blockers – H4 neuroglioma cells, luminescence, confirmation (AID 1988); type: functional, cell-based
Genome polyprotein = Genome polyprotein (dengue virus type 2, UniProt P29990); assay: flavivirus cap methylation enzyme inhibition – biochemical, confirmation dose response, primary screen (AID 588689); type: functional
[9] = target: T5, High affinity choline transporter 1 (Homo sapiens, UniProt Q9GZV3); assay: human choline transporter blockers, potency – cell-based, 5-point CRC, membrane potential dye, dose response (AID 504840); type: functional
T5 sequence (Q9GZV3 whole entry): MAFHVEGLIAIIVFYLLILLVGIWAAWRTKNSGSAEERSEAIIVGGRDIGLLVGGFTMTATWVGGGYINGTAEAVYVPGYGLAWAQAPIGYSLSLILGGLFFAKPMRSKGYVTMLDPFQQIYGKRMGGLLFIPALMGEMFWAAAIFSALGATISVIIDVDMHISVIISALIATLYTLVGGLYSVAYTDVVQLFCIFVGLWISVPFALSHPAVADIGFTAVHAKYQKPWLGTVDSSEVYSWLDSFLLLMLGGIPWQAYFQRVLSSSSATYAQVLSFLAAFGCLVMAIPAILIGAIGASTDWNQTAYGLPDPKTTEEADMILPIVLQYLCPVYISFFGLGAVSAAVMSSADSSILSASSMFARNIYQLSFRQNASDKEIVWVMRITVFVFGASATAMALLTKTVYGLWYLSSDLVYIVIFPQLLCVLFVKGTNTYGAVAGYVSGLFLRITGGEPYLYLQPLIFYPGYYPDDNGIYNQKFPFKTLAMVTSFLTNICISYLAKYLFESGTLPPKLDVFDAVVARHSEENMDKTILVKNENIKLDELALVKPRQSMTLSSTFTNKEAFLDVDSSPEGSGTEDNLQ

[10] = reduction of Shn3 3'UTR-driven luciferase in osteoblasts – cell-based, Clone20 osteoblasts, firefly luciferase, cherry-picked, dose response (AID 624132); type: functional;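 also: firefly luciferase luminescence from reporter carrying the Shn3 3'UTR in osteoblasts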
[11] = non-specific 3'UTR reporter inhibition in Clone20-Shn3RL – cell-based, Renilla luciferase, cherry-picked, counter-screen for Shn3 inhibitor project, dose response (AID 624133); type: functional
HEK293 = assay: EBV LMP1 TES2 canonical NF-kB signalling blockers – cell-based, HEK293, luciferase, cherry-pick, dose response (AID 588343); type: functional; conditions: Homo sapiens
[12] = test system: Streptococcus sp. 'group A'; assay: Streptococcus pyogenes SK(-)GAS viability under kanamycin – luminescence, BacTiterGlo, confirmation, counter-screen for streptokinase expression inhibitor project, dose response (AID 1900); type: functional, organism-based
Streptokinase A = target: T6, Streptokinase A (Streptococcus pyogenes serotype M1, UniProt P10520); assay: viability-normalized secreted streptokinase activity reduction – plasminogen activation absorbance, OD405, dose response (AID 1914); type: functional, Streptococcus pyogenes M1 GAS;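 also: secreted streptokinase activity via plasminogen activation per viability signal from cell pellet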
T6 sequence (P10520 whole entry): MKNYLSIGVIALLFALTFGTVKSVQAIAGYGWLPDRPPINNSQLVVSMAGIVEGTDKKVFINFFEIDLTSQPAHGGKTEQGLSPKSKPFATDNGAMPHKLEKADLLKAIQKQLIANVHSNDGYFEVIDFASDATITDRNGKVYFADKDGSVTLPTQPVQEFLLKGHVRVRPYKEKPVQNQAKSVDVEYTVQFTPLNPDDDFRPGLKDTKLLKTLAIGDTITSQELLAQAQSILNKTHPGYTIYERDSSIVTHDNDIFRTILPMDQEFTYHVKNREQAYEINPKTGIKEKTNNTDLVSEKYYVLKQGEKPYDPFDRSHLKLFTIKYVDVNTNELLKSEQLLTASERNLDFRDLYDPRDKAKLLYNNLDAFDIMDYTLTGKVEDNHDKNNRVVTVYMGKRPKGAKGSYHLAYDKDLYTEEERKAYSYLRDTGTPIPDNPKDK

[13] = Trypanosoma cruzi growth suppression in host cells – NIH3T3 host cells, beta-gal luminescence, confirmation (AID 2044); type: functional, cell-based;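 also: intracellular parasites grown in NIH/3T3 mouse fibroblasts as host cells; luminescent beta-galactosidase reporter signal from transgenic T. cruzi replicating inside host cells; inhibitors lower the luminescence signal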
[14] = NIH3T3 cell viability loss – ATP luminescence, mouse fibroblasts, counter-screen, dose response (AID 2010); type: functional, cell-based;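 also: cells exposed to compound for about 90 hours before reading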
Streptococcus = assay: GAS UMAA2166 growth inhibition – luminescence, BacTiterGlo, counter-screen for streptokinase expression inhibitor project, dose response (AID 1915); type: functional, organism-based;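 also: potency for reduction of bacterial viability or growth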
INS1 = assay: INS-1E survival protection against cytokine death – cell-based, luminescence, retest, dose response (AID 449756); type: functional; conditions: Rattus norvegicus;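 also: cell death triggered by IL-1 beta plus TNF-alpha plus IFN-gamma mixture; protective hits raise ATP signal compared with cytokine alone wells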

Sequence of Genome polyprotein (P29990 2492-3391 limits assumed): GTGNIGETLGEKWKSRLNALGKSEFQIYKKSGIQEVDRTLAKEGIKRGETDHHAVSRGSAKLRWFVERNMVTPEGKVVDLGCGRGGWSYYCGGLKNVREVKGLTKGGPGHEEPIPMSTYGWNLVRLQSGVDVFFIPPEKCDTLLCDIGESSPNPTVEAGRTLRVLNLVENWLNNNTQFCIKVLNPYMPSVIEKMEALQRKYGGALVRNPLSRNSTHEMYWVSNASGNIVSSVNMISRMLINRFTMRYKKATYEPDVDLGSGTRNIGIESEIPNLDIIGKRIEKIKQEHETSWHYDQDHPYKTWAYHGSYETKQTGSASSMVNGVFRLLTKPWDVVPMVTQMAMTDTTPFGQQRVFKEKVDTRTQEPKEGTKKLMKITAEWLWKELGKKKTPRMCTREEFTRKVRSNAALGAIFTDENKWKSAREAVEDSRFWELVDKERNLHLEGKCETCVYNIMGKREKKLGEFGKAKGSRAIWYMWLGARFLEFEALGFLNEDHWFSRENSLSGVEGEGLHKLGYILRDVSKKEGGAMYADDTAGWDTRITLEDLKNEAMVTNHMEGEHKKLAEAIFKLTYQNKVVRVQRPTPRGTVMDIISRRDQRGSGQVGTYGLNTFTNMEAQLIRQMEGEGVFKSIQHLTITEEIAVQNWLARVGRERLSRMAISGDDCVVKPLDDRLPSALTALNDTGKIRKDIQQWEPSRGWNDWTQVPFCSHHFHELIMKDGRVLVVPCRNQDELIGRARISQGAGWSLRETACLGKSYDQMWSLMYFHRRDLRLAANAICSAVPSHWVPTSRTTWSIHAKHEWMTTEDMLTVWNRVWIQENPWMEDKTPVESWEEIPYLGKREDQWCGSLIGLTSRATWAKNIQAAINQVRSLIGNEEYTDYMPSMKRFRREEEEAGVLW

## COc1ccc(CN2CCN(Cc3ccc(C(F)(F)F)cc3)CC2)cc1
[1]
  IC50: 99.6 µM (active)

## O=C(NCCCCc1ccccc1)c1ccc(Br)cc1
[2]
  AC50: 3.65 µM (active)

## CCCS(=O)(=O)c1nc(S(=O)(=O)c2ccc(C)cc2)c(N2CCCC2)s1
[3]
  EC50: > 53 µM (inactive)

## CC(C)(C)OC(=O)N1CC=C2C(C#N)=C(N)C(C#N)(C#N)[C@H](c3cccnc3)[C@H]2C1
[4]
  EC50: > 120 µM (not active)
[5]
  EC50: 61.7 µM (active)
[6]
  EC50: > 120 µM (not active)
[7]
  EC50: 54 µM (active)
[8]
  EC50: 60.3 µM (active)
Genome polyprotein
  IC50: > 100 µM (active)

## COc1cc(CNCc2ccccc2C(F)(F)F)cc(OC)c1
[1]
  IC50: 113 µM (active)

## CCN(CC)c1[nH]cnc2c3ccccc3nc1-2
[9]
  IC50: 13.8 µM (active)

## CN(C)CCn1c(=S)[nH]c2ccccc2c1=O
[9]
  IC50: 13.2 µM (active)

## CC1CN(C(=O)CCc2cc(C(C)(C)C)c(O)c(C(C)(C)C)c2)CC(C)O1 (stereo not given)
[10]
  AC50: 2.56 µM (active)
[11]
  AC50: 3.99 µM (active)

## COc1cc(/C=C/C(=O)OCC(=O)N(C)Cc2ccccc2)ccc1O
[1]
  IC50: 35.2 µM (active)

## CCOC(=O)c1c(NC(=O)C(C)Sc2cccc[n+]2[O-])sc2c1CCN(Cc1ccccc1)C2 (stereo not given)
[3]
  EC50: 4.81 µM (active)

## COc1ccc(-c2cc(C(=O)N3CCN(c4ccccc4F)CC3)c3ccccc3n2)c(OC)c1
[2]
  AC50: 5.77 µM (active)

## CC1(c2nnc(Cc3ccccc3)o2)CC(c2ccccc2[N+](=O)[O-])=NO1 (stereo not given)
[2]
  AC50: 1.59 µM (active)

## COc1ccc(C2=CC(c3ccc(C)cc3)n3nnnc3N2)cc1 (stereo not given)
[3]
  EC50: > 53 µM (inactive)

## CCN1CCN(Cc2ccc(NC(=O)c3ccc(C)c(NC(=O)c4cccc(-c5cnnc(O)c5)c4)c3)cc2C(F)(F)F)CC1
HEK293
  AC50: 1.83 µM (active)

## CC(C(=O)Nc1ccc(F)c(F)c1)N1CCN(C)CC1 (stereo not given)
[1]
  IC50: 83.1 µM (active)

## Cc1c(OCC(=O)C(C)(C)C)ccc2c(-c3ccccc3)cc(=O)oc12
[2]
  AC50: 7.83 µM (active)

## Oc1c(N=NC(S)=Nc2ccccc2F)c2ccccc2n1Cc1ccc(F)cc1
[12]
  EC50: 2.84 µM (active)
Streptokinase A
  EC50: 0.607 µM (inconclusive)
[13]
  EC50: 1.06 µM (active)
[14]
  EC50: 1.62 µM (active)
Streptococcus
  EC50: 17.8 µM (active)
HEK293
  AC50: 4.02 µM (active)

## COc1ccc2c(c1)[C@H]1[C@H](CO2)[C@H](c2ccccc2)[C@]2(C)C(=O)Nc3ccc(C)cc3C(=O)N12
[2]
  AC50: 6.38 µM (active)

## Cc1ccc(CCNc2ccc3ccccc3c2)cn1
[1]
  IC50: 105 µM (active)

## COc1ccccc1-c1sc2ccccc2c1-c1ccc(O)cc1
[2]
  AC50: 5.22 µM (active)

## COc1ccc(C(=O)N/N=C/c2sc3ccccc3c2O)cc1
[4]
  EC50: 12.7 µM (active)
[6]
  EC50: 11 µM (active)
[8]
  EC50: 10.2 µM (active)
[2]
  AC50: 2.68 µM (active)
INS1
  AC50: 1.8 µM (active)

## Cc1ccc(-c2cs/c(=N\c3cccnc3)n2CCCn2ccnc2)cc1C
[13]
  EC50: 0.118 µM (active)
[14]
  EC50: > 60 µM (not active)
HEK293
  AC50: 6.59 µM (active)

## O=[N+]([O-])c1cccc(-c2ccc(/C=N/Nc3nc(N4CCCCC4)nc(N4CCCCC4)n3)o2)c1
HEK293
  AC50: 96.7 µM (active)
